Consider 3 compounds from US12239133B2, “Herbicidal composition” (ISHIHARA SANGYO KAISHA, LTD., priority 2019, dated 2025).

In general, inhibition refers to the share of the control response that was lost under treatment.

Common to all, as to type: in vivo
For assay [1], the system named is velvetleaf (Abutilon theophrasti Medik.). Briefly: Example 3: pot test, foliar treatment of velvetleaf, pyroxsulam versus penoxsulam. On the procedure:
(§1) Upland field soil was put into a 1/1,000,000 hectare pot, and seeds of velvetleaf (Abutilon theophrasti Medik.) were sown. […] Further, the growth inhibition rate (expected value) was calculated in accordance with the Colby's formula.

Assay [2] shares this test system. Briefly: Example 2: pot test, foliar treatment of velvetleaf, visual growth inhibition rate. The following applies: 15th day after foliar treatment. The procedure:
as §1

Assay [3] has the same test system. Briefly: Example 1: pot test, foliar treatment of velvetleaf, visual growth inhibition rate. The following applies: 12th day after foliar treatment. On the procedure: as §1

As to `COc1cnc(OC)n2nc(NS(=O)(=O)c3c(OCC(F)F)cccc3C(F)(F)F)nc12` [Penoxsulam, penoxsulam], the inhibition at 0.5 g/ha in assay [1] (Abutilon theophrasti, dose 0.5 g/ha, 8th day after foliar treatment, read-out: Growth inhibition rate (%) Measured value (A)) was determined as 0%. Further, the inhibition at […] in assay [1] (Abutilon theophrasti, dose 0.75 g/ha, 8th day after foliar treatment, read-out: Growth inhibition rate (%) Measured value (A)) came to 0%. Further, in assay [1] (Abutilon theophrasti, dose 3 g/ha, 8th day after foliar treatment, read-out: Growth inhibition rate (%) Measured value (A)), the inhibition at 3 g/ha was 37%. Also, the “grow inhibition compared with expected (Colby)” value in assay [1] (combined with tolpyralate, summary in words of Table 3, 8th day) is “a grow inhibition rate more than expected was not obtained”.
Turning to `COc1cc(OC)n2nc(NS(=O)(=O)c3c(C(F)(F)F)ccnc3OC)nc2n1` [Pyroxsulam, pyroxsulam], the “Growth inhibition rate (%) Measured value (A)” value in assay [2] (dose 0.125 g/ha) came out at 0%; in assay [2] (dose 0.25 g/ha), 0%; in assay [2] (dose 0.5 g/ha), 0%; in assay [2] (dose 3 g/ha), 20%; in assay [2] (dose 4 g/ha), 30%; in assay [2] (dose 5 g/ha), 33%. For the same compound, the “Growth inhibition rate (%) Measured value (A)” value is on record as 35% in assay [2] (dose 6 g/ha); 2% in assay [3] (dose 0.5 g/ha); 17% in assay [3] (dose 1.5 g/ha); 25% in assay [3] (dose 2.25 g/ha); 27% in assay [3] (dose 3 g/ha); 0% in assay [1] (dose 0.5 g/ha, 8th day after foliar treatment). In addition, the “Growth inhibition rate (%) Measured value (A)” value in assay [1] (dose 3 g/ha, 8th day after foliar treatment) turned out to be 32%.
With `CCn1ncc(C(=O)c2ccc(S(C)(=O)=O)c(OCCOC)c2C)c1OC(C)OC(=O)OC` (stereo not drawn) [Tolpyralate, tolpyralate], the “Growth inhibition rate (%) Measured value (A)” value in assay [2] (dose 2.5 g/ha) amounted to 37%; in assay [3] (dose 2.5 g/ha) it was 20%; in assay [3] (dose 3.75 g/ha), 27%; in assay [1] (dose 2.5 g/ha, 8th day after foliar treatment), 10%.
